Source: BindingDB's records for doi:10.1016/j.bmcl.2011.10.052 (Rhône-Poulenc Rorer, 2011)

The compounds below were run against Dihydroorotate dehydrogenase (quinone), mitochondrial (Homo sapiens, UniProt Q02127) (assay: Inhibition of human dihydroorotate dehydrogenase).
Sequence of Dihydroorotate dehydrogenase (quinone), mitochondrial (Q02127 whole entry): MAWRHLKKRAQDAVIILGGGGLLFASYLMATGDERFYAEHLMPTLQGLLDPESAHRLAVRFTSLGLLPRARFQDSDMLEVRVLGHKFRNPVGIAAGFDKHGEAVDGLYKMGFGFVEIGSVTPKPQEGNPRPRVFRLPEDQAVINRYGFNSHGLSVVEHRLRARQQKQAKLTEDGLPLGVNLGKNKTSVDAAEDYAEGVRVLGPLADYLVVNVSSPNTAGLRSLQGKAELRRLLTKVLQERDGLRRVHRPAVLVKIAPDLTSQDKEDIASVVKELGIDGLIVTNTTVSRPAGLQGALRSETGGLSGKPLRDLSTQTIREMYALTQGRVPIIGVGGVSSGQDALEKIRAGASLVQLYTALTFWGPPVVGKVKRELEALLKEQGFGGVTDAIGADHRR

SMILES | IC50 [nM]
CCC(=O)C(C#N)C(=O)Nc1ccc(OS(=O)(=O)C(F)(F)F)cc1 (configuration not stated) | 150
CCC(=O)C(C#N)C(=O)Nc1ccc(-c2ccc(F)cc2F)c(C(=O)OC)c1 (configuration not stated) | 31
CCC(=O)C(C#N)C(=O)Nc1ccc(-c2ccc(F)cc2OC)c(C(=O)OC)c1 (configuration not stated) | 66
CCC(=O)C(C#N)C(=O)Nc1ccc(-c2ccc3c(c2)OCCO3)c(C(=O)OC)c1 (configuration not stated) | 66

The remaining compounds from weak to strong by IC50, led by results:

IC50 [nM] | SMILES
150 | CCC(=O)C(C#N)C(=O)Nc1ccc(-c2ccc(F)nc2)c(C(=O)OC)c1 (configuration not stated)
31 | CCC(=O)C(C#N)C(=O)Nc1ccc(-c2cccc(Cl)c2)c(C(=O)OC)c1 (configuration not stated)
31 | CCC(=O)C(C#N)C(=O)Nc1ccc(-c2cccc(OC3CCC3)c2)c(C(=O)OC)c1 (configuration not stated)
